Values quoted from earlier work as cited in patent US20210236523A1, “P[…] FOR HEADACHE DISORDERS” (priority 2020, published 2021).
Entries after “also recorded” stand apart in the source; their conditions may differ.

Assays:
cluster headache = conditions: et al., cited from earlier work
5-HT2B = 5-HT2B (Homo sapiens, UniProt P41595); conditions: cited from earlier work
dopamine receptor = conditions: cited from earlier work
5-HT2A = 5-HT2A (Homo sapiens, UniProt P28223); conditions: cited from earlier work
5-HT1 = conditions: cited from earlier work

Chain of 5-HT2A (P28223 whole entry): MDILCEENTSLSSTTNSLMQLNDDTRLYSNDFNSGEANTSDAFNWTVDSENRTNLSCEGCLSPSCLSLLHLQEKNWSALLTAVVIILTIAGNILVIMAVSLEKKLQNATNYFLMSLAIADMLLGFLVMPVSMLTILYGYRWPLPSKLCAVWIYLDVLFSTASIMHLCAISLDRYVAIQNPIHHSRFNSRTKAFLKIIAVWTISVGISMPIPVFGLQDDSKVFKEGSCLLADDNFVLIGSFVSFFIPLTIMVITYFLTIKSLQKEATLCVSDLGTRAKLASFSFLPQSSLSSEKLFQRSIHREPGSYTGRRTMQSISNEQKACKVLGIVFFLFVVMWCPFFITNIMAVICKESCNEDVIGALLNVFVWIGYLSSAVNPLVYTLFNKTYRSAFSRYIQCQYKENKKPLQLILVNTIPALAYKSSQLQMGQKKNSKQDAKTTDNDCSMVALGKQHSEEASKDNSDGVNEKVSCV
Chain of 5-HT2B (P41595 whole entry, species assumed): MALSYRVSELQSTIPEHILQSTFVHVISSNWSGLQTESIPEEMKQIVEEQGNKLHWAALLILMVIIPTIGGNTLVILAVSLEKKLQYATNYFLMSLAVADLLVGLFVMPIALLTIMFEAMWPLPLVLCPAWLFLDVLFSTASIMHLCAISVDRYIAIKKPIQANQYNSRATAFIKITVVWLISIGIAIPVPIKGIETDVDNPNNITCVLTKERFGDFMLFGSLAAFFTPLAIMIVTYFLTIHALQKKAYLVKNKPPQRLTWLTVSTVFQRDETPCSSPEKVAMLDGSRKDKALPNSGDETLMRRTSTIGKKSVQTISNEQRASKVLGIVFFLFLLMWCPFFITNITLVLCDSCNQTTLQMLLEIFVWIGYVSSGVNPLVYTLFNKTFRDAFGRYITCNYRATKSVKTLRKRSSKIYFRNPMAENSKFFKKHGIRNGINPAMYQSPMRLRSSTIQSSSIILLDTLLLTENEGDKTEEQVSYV

CCN(CC)C(=O)[C@@H]1C=C2c3cccc4[nH]cc(c34)C[C@H]2N(C)C1 [LSD, lysergic acid diethylamide]
reported effects in cluster headache (cluster headache; Sewell, 2006, Schindler et al., 2015): stop acute cluster attacks, terminate cluster cycles, and induce and prolong remission from cluster headache

CCN(CC)C(=O)[C@@H]1C=C2c3cccc4[nH]c(Br)c(c34)C[C@H]2N(C)C1 [BOL-148, 2-bromo-lysergic acid diethylamide]
effect on cluster headache cycle and attacks (cluster headache; three single oral doses of 30 μg/kg, Karst, 2010): either break a cluster headache cycle or considerably improve the frequency and intensity of attacks

CN(C)CCc1c[nH]c2cccc(O)c12 [psilocin]
affinity for 5-HT2B (5-HT2B): high affinity | effect on the dopamine receptor (dopamine receptor): no effect | affinity for 5-HT2A (5-HT2A): high affinity; also recorded: modest affinity | affinity for 5-HT1 (5-HT1): low affinity
